Here are results for 23 compounds from patent US5824699A, “Carbazole inhibitors of Cox-2” (American Home Products Corporation, priority 1998, dated 1998).

Structures can show the parent of a compound that is named as a salt. Where two headings read alike, the source gives them in different places.

Usually IC50 stands for the point on the concentration scale where inhibition reaches its midpoint.

The target in data set [1] is T1, human COX-2 (rhCOX-2) (Homo sapiens, UniProt P35354).
T1 construct: made in house; host or cells: Sf9 or CHO cells (microsomal preparation)
T1 sequence (P35354 18-604): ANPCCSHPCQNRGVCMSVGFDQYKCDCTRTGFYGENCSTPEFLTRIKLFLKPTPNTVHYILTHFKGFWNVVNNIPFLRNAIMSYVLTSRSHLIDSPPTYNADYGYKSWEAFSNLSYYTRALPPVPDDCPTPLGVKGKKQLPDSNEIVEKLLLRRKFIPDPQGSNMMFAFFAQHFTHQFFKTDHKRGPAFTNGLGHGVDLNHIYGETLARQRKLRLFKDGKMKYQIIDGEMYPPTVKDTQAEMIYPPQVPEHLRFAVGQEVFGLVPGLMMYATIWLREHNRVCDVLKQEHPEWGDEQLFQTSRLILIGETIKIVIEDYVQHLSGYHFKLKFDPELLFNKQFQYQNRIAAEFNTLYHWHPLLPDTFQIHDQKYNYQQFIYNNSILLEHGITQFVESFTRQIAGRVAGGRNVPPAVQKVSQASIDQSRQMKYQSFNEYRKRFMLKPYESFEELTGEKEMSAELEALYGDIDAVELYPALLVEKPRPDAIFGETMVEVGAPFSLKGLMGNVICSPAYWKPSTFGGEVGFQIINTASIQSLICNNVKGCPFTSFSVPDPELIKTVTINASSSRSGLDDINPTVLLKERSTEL
Kind of data set: inhibition of microsomal human recombinant COX-2 (PGH2 converted to PGF2a, quantified by EIA). It is filed as biochemical. The following applies: for inhibition at 1 µM: rhCOX-2, at 1 μM; for IC50: rhCOX-2, value in parentheses = IC50, 30 μM arachidonic acid, read-out: % Inhib of rhCOX-2 (IC50); for inhibition at 3.3 µM: rhCOX-2, at 3.3 μM (* sodium salt for Example 19); for inhibition at 3 µM: rhCOX-2, at 3 μM. As for the experimental part: (§1) The microsomal human recombinant enzymes were diluted with buffer (100 mM Tris, pH 7.8 at 37° C.) containing 0.5 mM phenol (964 μl total volume). The enzyme preparations were preincubated with vehicle (DMSO) or compounds in DMSO (1% DMSO in final assay) for 30 min at […]
(§2) The reaction was incubated for 35 s (maximum level of PGH2 accumulation as determined from time course studies), and terminated by addition of 50-60 μL of SnCl2 (1 mg/ml) in 0.1N HCl. PGH2 is quantitatively converted to PGF2a by this reaction ([…] of total conversion). The pH of each tube is adjusted to pH 3.0-3.5 with 1N NaOH and extracted twice with 1.5 ml of ethyl acetate (75-90% efficiency per extraction). Combined ethyl acetate layers were dried under N2 (g) and redissolved in EIA buffer (2.0 ml), and PGF2a was quantified by EIA.

For data set [2], the target named is T2, human COX-1 (rhCOX-1) (Homo sapiens, UniProt P23219).
T2 construct: made in house; host or cells: Sf9 or CHO cells (microsomal preparation)
T2 sequence (P23219 24-599): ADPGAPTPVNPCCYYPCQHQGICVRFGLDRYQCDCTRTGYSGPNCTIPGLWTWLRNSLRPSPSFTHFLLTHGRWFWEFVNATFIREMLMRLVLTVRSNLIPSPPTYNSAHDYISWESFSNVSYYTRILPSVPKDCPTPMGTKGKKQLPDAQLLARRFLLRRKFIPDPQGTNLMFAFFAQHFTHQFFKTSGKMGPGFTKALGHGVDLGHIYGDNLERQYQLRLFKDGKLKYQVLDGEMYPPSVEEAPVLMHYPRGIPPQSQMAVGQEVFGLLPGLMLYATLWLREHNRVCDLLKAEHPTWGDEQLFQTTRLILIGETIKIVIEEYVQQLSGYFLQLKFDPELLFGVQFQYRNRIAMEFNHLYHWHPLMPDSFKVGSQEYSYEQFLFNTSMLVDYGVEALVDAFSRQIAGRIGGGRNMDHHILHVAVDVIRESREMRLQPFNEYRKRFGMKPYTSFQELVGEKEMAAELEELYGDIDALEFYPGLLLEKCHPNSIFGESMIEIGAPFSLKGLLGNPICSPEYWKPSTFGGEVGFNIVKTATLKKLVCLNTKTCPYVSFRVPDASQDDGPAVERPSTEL
As to the kind of experiment: inhibition of microsomal human recombinant COX-1 (PGH2 converted to PGF2a, quantified by EIA). It is filed as biochemical. The method, then: as §1, §2

The test system of data set [3] is COX-2. The following applies: Glaser et al., Eur. J. Pharmacol. 281, 107-111 (1995); cited from earlier work.
For data set [4] the following is noted: cited from earlier work.
For data set [5] the following is noted: Rogers et al., Neurology 43, 1609-1611 (1993); cited from earlier work.
For data set [6], the system named is prostaglandin synthesis. Conditions: Humber et al., J. Med. Chem. 31, 1712-1719 (1988); U.S. Pat. No. 4,686,213; cited from earlier work.
For data set [7] the following is noted: Humber et al., J. Med. Chem. 31, 1712-1719 (1988); cited from earlier work.
Where [8] appears, read: Table 2, read-out: % Inhib of rhCOX-2.
Setting [9] is: Table 3, rhCOX-1, at 90 μM (* sodium salt for Example 19), read-out: % Inhib rhCOX-1.
[10] abbreviates: Table 3, read-out: Inhib rhCOX-2.
The mark [11] stands for this setting: Table 2, rhCOX-1, at 90 μM, read-out: % Inhibn of rhCOX-1.
Where [12] appears, read: Table 1, rhCOX-1, at 90 μM, read-out: % Inhibition of rhCOX-1.
Where [13] appears, read: Table 1, read-out: % Inhib of rhCOX-2.

Regarding `CCC1(CC(=O)O)CCC(=O)c2c1[nH]c1c(F)ccc(F)c21` (stereo not shown) [Example 13, (1-Ethyl-5,8-difluoro-4-oxo-2,3,4,9-tetrahydro-1H-(carbazol-1-yl))-acetic acid], in data set [1] (setting [8]), the inhibition at 1 µM was determined as 25%.

In the case of `CCc1cccc2c3c([nH]c12)C(CC)(CC(=O)O)OCC3=O` (stereo not shown) [Example 4, 1,8-Diethyl-4-oxo-1,3,4,9-tetrahydro-pyrano-[3,4-b]indole-1-acetic acid], the IC50 in data set [2] (Table 1, rhCOX-1, read-out: % Inhibition of rhCOX-1 (value in parentheses, IC50)) was greater than 270000 nM; in data set [1] (Table 1), 1900 nM.

Regarding `CCCC1(CC(=O)O)CCC(=O)c2c1[nH]c1c(F)ccc(F)c21` (stereo not shown) [Example 16, (5,8-Difluoro-4-oxo-1-propyl-2,3,4,9-tetrahydro-1H-(carbazol-1-yl))-aceticacid], in data set [1] (setting [8]), the inhibition at 1 µM turned out to be 29%.

For the compound `C=CCC1(CC(=O)O)CCC(=O)c2c1[nH]c1c(F)ccc(F)c21` (stereo not shown) [Example 15, (1-Allyl-5,8-difluoro-4-oxo-2,3,4,9-tetrahydro-1H-(carbazol-1-yl))-acetic acid], the inhibition at 1 µM in data set [1] (setting [8]) was determined as 30%.

Turning to `CCc1cccc2c3c([nH]c12)C(CC)(CC(=O)O)OCC3=NNS(C)(=O)=O` (stereo not shown) [Example 19, [1,8-Diethyl-4-(methanesulfonyl-hydrazono)-1,3,4,9-tetrahydro-pyrano [3,4-b]indol-1-yl]-acetic acid sodium salt], the inhibition at 90 µM in data set [2] (setting [9]) came out at 96%. The inhibition at 3.3 µM in data set [1] (setting [10]) turned out to be 50%.

Consider `C=CCc1c(F)ccc2c3c([nH]c12)C(CC)(CC(=O)O)OCC3=O` (stereo not shown) [Example 8, 8-Allyl-1-ethyl-7-fluoro-4-oxo-1,3,4,9-tetrahydropyrano[3,4-b]indole-1-acetic acid], for which the inhibition at 3 µM in data set [2] (Table 1, rhCOX-1, at 3 μM) worked out at 78%. For the same compound, the IC50 in data set [1] (Table 1) worked out at 370 nM.

As for `COc1ccc2c(c1)c(CC(=O)O)c(C)n2C(=O)c1ccc(Cl)cc1` [indomethacin], the “selectivity for inhibition of COX-2” value in data set [3] was “relatively non-selective inhibitor of COX-2”. Also, the G.I. safety entry in data set [4] (literature) is “adverse G.I. side effects”. Moreover, the “usefulness in the treatment of Alzheimer's disease” value in data set [5] is “useful in the treatment of Alzheimer's disease”.

Consider `CCC1(CC(=O)O)CCC(=O)c2c1[nH]c1ccccc21` (stereo not shown) [Example 9, [1-Ethyl-4oxo-2,3,4,9-tetrahydro-1H-(carbazol-1-yl)]-acetic acid], for which the inhibition at 3 µM in data set [1] (setting [8]) was 26%.

Regarding `CCc1cccc2c3c([nH]c12)C(CC)(CC(=O)O)CCC3=O` (stereo not shown) [Example 10, [1,8-Diethyl-4-oxo-2,3,4,9-tetrahydro-1H-(carbazol-1-yl)]-acetic acid], the inhibition at 90 µM in data set [2] (setting [11]) came to 26%. Moreover, in data set [1] (Table 2), the 50% inhibitory concentration (IC50) is 2000 nM.

Take `CCC1(CC(=O)O)OCC(=O)c2c1[nH]c1cccc(Br)c21` (stereo not shown) [Example 6, (5-Bromo-1-ethyl-4-oxo-1,3,4,9-tetrahydro-pyrano[3,4-b]indol-1-yl)-acetic acid]: in data set [1] (Table 1), the half-maximal inhibitory concentration (IC50) worked out at 1100 nM.

Turning to `CCc1cccc2c3c([nH]c12)C(CC)(CC(=O)O)CCC3=NO` (stereo not shown) [Example 20, (1,8-Diethyl-4-hydroxyimino-2,3,4,9-tetrahydro-1H-carbazol-1-yl)-acetic acid], the inhibition at 1 µM in data set [1] (setting [10]) was found to be 18%.

Take `CCc1cccc2c3c([nH]c12)C(CC)(CC(=O)O)OCC3` (stereo not shown) [etodolac]: in data set [3], the “selectivity for inhibition of COX-2” value is recorded as “tenfold”. Further, in data set [4] (in vivo), the G.I. safety result is “improved G.I. safety”.

Regarding `CCCC1(CC(=O)O)OCC(=O)c2c1[nH]c1ccccc21` (stereo not shown) [Example 2, (1-Propyl-4-oxo-1,3,4,9-tetrahydro-pyrano[3,4-b]indol-1-yl)-acetic acid], in data set [2] (setting [12]), the inhibition at 90 µM stood at 44%. Besides, the half-inhibitory concentration (IC50) in data set [1] (Table 1) is 3200 nM.

On to `CCc1cccc2c3c([nH]c12)C(CC)(CC(=O)O)OCC3=O` (stereo not shown) [4-oxo metabolite], for which the “activity in blocking prostaglandin synthesis” value in data set [6] is “active in blocking prostaglandin synthesis”. Besides, in data set [7], the “oral in vivo antiinflammatory activity” value is on record as “had oral in vivo antiinflammatory activity”.

For the compound `COCC1(CC(=O)O)OCC(=O)c2c1[nH]c1ccccc21` (stereo not shown) [Example 3, (1-Methoxymethyl-4-oxo-1,3,4,9-tetrahydro-pyrano[3,4-b]indol-1-yl)-acetic acid], the inhibition at 3 µM in data set [1] (setting [13]) was found to be 8%.

With `CCC1(CC(=O)O)CCC(=O)c2c1[nH]c1c(F)c(F)ccc21` (stereo not shown) [Example 14, (7.8-Difluoro-1-ethyl-4-oxo-2,3,4,9-tetrahydro-1H-(carbazol-1-yl))-acetic acid], the inhibition at 23 µM in data set [2] (Table 2, rhCOX-1, at 23 μM, read-out: % Inhibn of rhCOX-1) was 50%. The IC50 in data set [1] (Table 2) amounted to 700 nM.

Take `CCC1(CC(=O)O)OCC(=O)c2c1[nH]c1cccc(C#N)c21` (stereo not shown) [Example 7, 5-Cyano-1-ethyl-4-oxo-1,3,4,9-tetrahydropyrano[3,4-b]indole-1-acetic acid]: the inhibition at 1 µM in data set [1] (setting [13]) turned out to be 7%.

Regarding `CCCC1(CC(=O)O)CCC(=O)c2c1[nH]c1cc(F)cc(F)c21` (stereo not shown) [Example 17, (5,7-Difluoro-1-propyl-4-oxo-2,3,4,9-tetrahydro-1H-(carbazol-1-yl))-aceticacid], in data set [1] (setting [8]), the inhibition at 1 µM was 13%.

For `CCc1cccc2c3c([nH]c12)C(CC)(CC(=O)O)OCC3=NO` (stereo not shown) [Example 18, [1,8-Diethyl-4-hydroxyimino-1,3,4,9-tetrahydro-pyrano[3.4-b]indol-1-yl]-ace tic acid], the inhibition at 90 µM in data set [2] (setting [9]) worked out at 96%. The inhibition at 3.3 µM in data set [1] (setting [10]) was determined as 50%.

`CCC1(CC(=O)O)OCC(=O)c2c1[nH]c1ccccc21` (stereo not shown) [Example 1, (1-Ethyl-4-oxo-1,3,4,9-tetrahydro-pyrano[3,4-b]indol-1-yl)-acetic acid]: the inhibition at 90 µM in data set [2] (setting [12]) was determined as 43%. For the same compound, the IC50 in data set [1] (Table 1) is 2100 nM.

Regarding `CCC1(CC(=O)O)CCC(=O)c2c1[nH]c1cccc(Cl)c21` (stereo not shown) [Example 12, [1-Ethyl-5-chloro-4-oxo-2,3,4,9-tetrahydro-1H-(carbazol-1-yl)]-acetic acid], the inhibition at 30 µM in data set [2] (Table 2, rhCOX-1, at 30 μM, read-out: % Inhibn of rhCOX-1) is 5%. Moreover, the inhibition at 1 µM in data set [1] (setting [8]) came to 12%.

As to `CCC1(CC(=O)O)OCC(=O)c2c1[nH]c1cccc(Cl)c21` (stereo not shown) [Example 5, (5-Chloro-1-ethyl-4-oxo-1,3,4,9-tetrahydro-pyrano[3,4-b]indol-1-yl)-aceticacid], in data set [1] (Table 1), the half-inhibitory concentration (IC50) was 1200 nM.

Take `CCC1(CC(=O)O)CCC(=O)c2c1[nH]c1c(C(C)C)cccc21` (stereo not shown) [Example 11, [1-Ethyl-8-isopropyl-4-oxo-2,3,4,9-tetrahydro-1H-(carbazol-1-yl)]-acetic acid]: the inhibition at 90 µM in data set [2] (setting [11]) came to 85%. The inhibition at 3 µM in data set [1] (setting [8]) was found to be 40%.
